Tests used:
[1] = Compatibility of acetic acid sources with the gelatin and plasticizer matrix; format: physicochemical; conditions: acetic acid source tested individually
Procedure: Various sources of acetic acid were tested in the laboratory to determine their compatibility with the gelatin and plasticizer matrix.

[2] = in softgel liquid fill materials
Text: The Bragg brand of apple cider vinegar hardshell capsules include sodium diacetate.

CC(=O)[O-].CC(=O)[O-].[Ca+2] [Calcium acetate]
compatibility with the gelatin and plasticizer matrix (reaction observed) [1]: partially gelled up and liquified

CC(=O)O.NCCCC[C@H](N)C(=O)O [Lysine acetate powder, Lysine acetate]
compatibility with the gelatin and plasticizer matrix (reaction observed) [1]: completely liquefied

CC(=O)O.CC(=O)[O-].[Na+] [Sodium diacetate]
effect on softgel shell [2]: causes holes to form in the softgel shell | compatibility with the gelatin and plasticizer matrix (reaction observed) [1]: corroding a hole in the gelatin and causing leakage of the fill material

CC(=O)[O-].CC(=O)[O-].[Zn+2] [Zinc acetate]
compatibility with the gelatin and plasticizer matrix (reaction observed) [1]: least reaction

Source: patent publication US20250248944A1, “SOFTGEL CAPSULES HAVING A FILL COMPOSITION COMPRISING APPLE CIDER VINEGAR” (CAPTEK SOFTGEL INTERNATIONAL, INC., priority 2024, published 2025)
